From US11578343B2, “CAS9 proteins including ligand-dependent inteins” (President and Fellows of Harvard College, priority 2014, dated 2023)

Experiments:
Assay type in all cases: cell-based, human
CLTA genomic site = assay: T7 Endonuclease I Surveyor assay of genomic modification; details: FIG. 2
Protocol: (§1) The presence of two bands corresponding to smaller DNA fragments (the fragments are approximately the same size for EMX) indicates genomic modification.
(§2) 4-HT (1 μM) was added during transfection for +4-HT samples. 12 hours after transfection the media was replaced. 60 hours after transfection, cells were trypsinized and genomic DNA was isolated using the DNAdvance kit (Agencourt). […] PCR products were purified with a QIAquick PCR Purification Kit (Qiagen) and quantified with a Quant-iT PicoGreen dsDNA Kit (Life Technologies). 200 ng of purified PCR DNA was then combined with 2 μL of NEBuffer 2 (NEB) in a total volume of 19 μL and denatured then re-annealed with thermocycling at 95° C. for 5 min, 95-85° C. at 2° C./s, 85-20° C. at 0.2° C./s. The re-annealed DNA was incubated with 1 μL of T7 Endonuclease I (10 U/μL, NEB) at 37° C. for 15 min. 10 μL of 50% glycerol was added to the T7 Endonuclease reaction and 15 μL was analyzed on a 5% TBE 18-well Criterion PAGE gel (Bio-Rad) electrophoresed for 30 min at 200V and stained with EtBr for 15 min.

EMX genomic site = assay: as above; details: FIG. 2
Protocol: as §1, §2

VEGF genomic site = assay: as above; details: FIG. 2
Protocol: as §1, §2

CLTA Off 1 = assay: High-throughput DNA sequencing of genome modifications; details: 500 ng Cas9 plasmid; for Mod. Freq (indels/total sequences), CLTA Off 1: Table 4
Protocol: (§3) We assayed these Cas9:sgRNA combinations in human cells for their ability to modify the three on-target loci as well as 11 known off-target genomic sites (Table 3)^4,5,10,13. Cells were treated with or without 1 μM 4-HT during transfection, and after 12 h the media was replaced with fresh media lacking 4-HT. […] Genomic DNA was isolated 60 h post-transfection and analyzed by high-throughput DNA sequencing
(§4) High-throughput DNA sequencing of genome modifications. HEK293-GFP stable cells were transfected with plasmids expressing Cas9 (500 ng) and sgRNA (125 ng) as described above. […] 4-HT (1 μM final), where appropriate, was added during transfection. 12 h after transfection, the media was replaced with full serum media without 4-HT. Genomic DNA was isolated and pooled from three biological replicates 60 h after transfection using a previously reported^11 protocol with a DNAdvance Kit (Agencourt). 150 ng or 200 ng of genomic DNA was used as a template to amplify by PCR the on-target and off-target genomic sites with flanking HTS primer pairs described previously^11. PCR products were purified using RapidTips (Diffinity Genomics) and quantified using the PicoGreen dsDNA Assay Kit (Invitrogen). Purified DNA was PCR amplified with primers containing sequencing adaptors, purified with the MinElute PCR Purification Kit (Qiagen) and AMPure XP PCR Purification (Agencourt). Samples were sequenced on a MiSeq high-throughput DNA sequencer (Illumina), and sequencing data was analyzed as described previously^4.
(§5) Sensitivity limit of off-target cleavage assays. We used paired end sequencing to identify indels caused by genomic on- and off-target cleavage. […] A 1 ng sample of human gDNA represents only ˜330 unique genomes, and thus only ˜330 unique copies of each genomic site are present. PCR amplification for each genomic target was performed on a total of 150 ng or 200 ng of input gDNA, which provides amplicons derived from at most 50,000 or 65,000 unique gDNA copies, respectively. Therefore, the high-throughput sequencing assay cannot detect rare genome modification events that occur at a frequency of less than approximately 1 in 50,000 (0.002%). When comparing between two conditions, such as wt Cas9 vs. intein-Cas9, this threshold becomes approximately 10 in 50,000 (0.02%) when using the Fisher exact test and a conservative multiple comparison correction (Bonferroni with 14 samples). See also Minoche, A. E., Dohm, J. C., & Himmelbauer, H. Evaluation of genomic high-throughput sequencing data generated on Illumina HiSeq and Genome Analyzer systems. Genome Biology 12, R112 (2011).

CLTA Off 2 = assay: as above; details: 500 ng Cas9 plasmid; for Mod. Freq (indels/total sequences), CLTA Off 2: Table 4
Protocol: as §3, §4, §5

CLTA Off 3 = assay: as above; details: 500 ng Cas9 plasmid; for Mod. Freq (indels/total sequences), CLTA Off 3: Table 4
Protocol: as §3, §4, §5

CLTA On = assay: as above; details: 500 ng Cas9 plasmid; for Mod. Freq (indels/total sequences), CLTA On: Table 4
Protocol: as §3, §4, §5

EMX Off 1 = assay: as above; details: 500 ng Cas9 plasmid; for Mod. Freq (indels/total sequences), EMX Off 1: Table 4
Protocol: as §3, §4, §5

EMX Off 2 = assay: as above; details: 500 ng Cas9 plasmid; for Mod. Freq (indels/total sequences), EMX Off 2: Table 4
Protocol: as §3, §4, §5

EMX Off 3 = assay: as above; details: 500 ng Cas9 plasmid; for Mod. Freq (indels/total sequences), EMX Off 3: Table 4
Protocol: as §3, §4, §5

EMX Off 4 = assay: as above; details: 500 ng Cas9 plasmid; for Mod. Freq (indels/total sequences), EMX Off 4: Table 4
Protocol: as §3, §4, §5

EMX On = assay: as above; details: 500 ng Cas9 plasmid; for Mod. Freq (indels/total sequences), EMX On: Table 4; for Mod Freq (indels/total sequences), EMX On: +4-HT, Table 6
Protocol: as §3, §4, §5

VEGF Off 1 = assay: as above; details: 500 ng Cas9 plasmid; for Mod. Freq (indels/total sequences), VEGF Off 1: Table 4
Protocol: as §3, §4, §5

VEGF Off 2 = assay: as above; details: 500 ng Cas9 plasmid; for Mod. Freq (indels/total sequences), VEGF Off 2: Table 4
Protocol: as §3, §4, §5

VEGF Off 3 = assay: as above; details: 500 ng Cas9 plasmid; for Mod. Freq (indels/total sequences), VEGF Off 3: Table 4
Protocol: as §3, §4, §5

VEGF Off 4 = assay: as above; details: 500 ng Cas9 plasmid; for Mod. Freq (indels/total sequences), VEGF Off 4: Table 4
Protocol: as §3, §4, §5

VEGF On = assay: as above; details: 500 ng Cas9 plasmid; for Mod. Freq (indels/total sequences), VEGF On: Table 4
Protocol: as §3, §4, §5

## intein(Cys574)-Cas9: Cas9 with 37R3-2 intein replacing Cys574 (SEQ ID NO: 33)
CLTA genomic site; +4-HT (1 μM)
  Genomic modification of target site (T7E1 gel): comparable to modification by wild-type Cas9
CLTA genomic site; absence of 4-HT
  Genomic modification of target site (T7E1 gel): some background cleavage
EMX genomic site; +4-HT (1 μM)
  Genomic modification of target site (T7E1 gel): comparable to modification by wild-type Cas9
EMX genomic site; absence of 4-HT
  Genomic modification of target site (T7E1 gel): minimal or no modification
VEGF genomic site; +4-HT (1 μM)
  Genomic modification of target site (T7E1 gel): comparable to modification by wild-type Cas9
VEGF genomic site; absence of 4-HT
  Genomic modification of target site (T7E1 gel): minimal or no modification
CLTA Off 1; +4-HT (1 μM, 12 h)
  Mod. Freq (indels/total sequences), CLTA Off 1: 0.04%
CLTA Off 1; +4-HT, Table 6
  Mod Freq (indels/total sequences), CLTA Off 1: 0.03%
CLTA Off 1; −4-HT
  Mod. Freq (indels/total sequences), CLTA Off 1: 0.01%
CLTA Off 2; +4-HT (1 μM, 12 h)
  Mod. Freq (indels/total sequences), CLTA Off 2: 0.02%
CLTA Off 2; +4-HT, Table 6
  Mod Freq (indels/total sequences), CLTA Off 2: 0.00%
CLTA Off 2; −4-HT
  Mod. Freq (indels/total sequences), CLTA Off 2: 0.00%
CLTA Off 3; +4-HT (1 μM, 12 h)
  Mod. Freq (indels/total sequences), CLTA Off 3: 0.01%
CLTA Off 3; +4-HT, Table 6
  Mod Freq (indels/total sequences), CLTA Off 3: 0.01%
CLTA Off 3; −4-HT
  Mod. Freq (indels/total sequences), CLTA Off 3: 0.00%
CLTA On; +4-HT (1 μM, 12 h)
  Mod. Freq (indels/total sequences), CLTA On: 7.65%
CLTA On; +4-HT, Table 6
  Mod Freq (indels/total sequences), CLTA On: 6.35%
CLTA On; −4-HT
  Mod. Freq (indels/total sequences), CLTA On: 1.81%
EMX Off 1; +4-HT (1 μM, 12 h)
  Mod. Freq (indels/total sequences), EMX Off 1: 0.27%
EMX Off 1; +4-HT, Table 6
  Mod Freq (indels/total sequences), EMX Off 1: 0.17%
EMX Off 1; −4-HT
  Mod. Freq (indels/total sequences), EMX Off 1: 0.01%
EMX Off 2; +4-HT (1 μM, 12 h)
  Mod. Freq (indels/total sequences), EMX Off 2: 0.04%
EMX Off 2; +4-HT, Table 6
  Mod Freq (indels/total sequences), EMX Off 2: 0.02%
EMX Off 2; −4-HT
  Mod. Freq (indels/total sequences), EMX Off 2: 0.01%
EMX Off 3; +4-HT (1 μM, 12 h)
  Mod. Freq (indels/total sequences), EMX Off 3: 0.29%
EMX Off 3; +4-HT, Table 6
  Mod Freq (indels/total sequences), EMX Off 3: 0.25%
EMX Off 3; −4-HT
  Mod. Freq (indels/total sequences), EMX Off 3: 0.02%
EMX Off 4; +4-HT (1 μM, 12 h)
  Mod. Freq (indels/total sequences), EMX Off 4: 1.13%
EMX Off 4; +4-HT, Table 6
  Mod Freq (indels/total sequences), EMX Off 4: 0.85%
EMX Off 4; −4-HT
  Mod. Freq (indels/total sequences), EMX Off 4: 0.09%
EMX On; +4-HT (1 μM, 12 h)
  Mod. Freq (indels/total sequences), EMX On: 9.47%
EMX On; listed as intein-Cas9 (C574)
  Mod Freq (indels/total sequences), EMX On: 6.42%
EMX On; listed as intein-Cas9(C574)
  Mod Freq (indels/total sequences), EMX On: 6.4%
EMX On; −4-HT
  Mod. Freq (indels/total sequences), EMX On: 0.99%
VEGF Off 1; +4-HT (1 μM, 12 h)
  Mod. Freq (indels/total sequences), VEGF Off 1: 4.68%
VEGF Off 1; +4-HT, Table 6
  Mod Freq (indels/total sequences), VEGF Off 1: 3.18%
VEGF Off 1; −4-HT
  Mod. Freq (indels/total sequences), VEGF Off 1: 0.29%
VEGF Off 2; +4-HT (1 μM, 12 h)
  Mod. Freq (indels/total sequences), VEGF Off 2: 0.77%
VEGF Off 2; +4-HT, Table 6
  Mod Freq (indels/total sequences), VEGF Off 2: 0.38%
VEGF Off 2; −4-HT
  Mod. Freq (indels/total sequences), VEGF Off 2: 0.05%
VEGF Off 3; +4-HT (1 μM, 12 h)
  Mod. Freq (indels/total sequences), VEGF Off 3: 0.19%
VEGF Off 3; +4-HT, Table 6
  Mod Freq (indels/total sequences), VEGF Off 3: 0.07%
VEGF Off 3; −4-HT
  Mod. Freq (indels/total sequences), VEGF Off 3: 0.01%
VEGF Off 4; +4-HT (1 μM, 12 h)
  Mod. Freq (indels/total sequences), VEGF Off 4: 1.40%
VEGF Off 4; +4-HT, Table 6
  Mod Freq (indels/total sequences), VEGF Off 4: 0.91%
VEGF Off 4; −4-HT
  Mod. Freq (indels/total sequences), VEGF Off 4: 0.07%
VEGF On; +4-HT (1 μM, 12 h)
  Mod. Freq (indels/total sequences), VEGF On: 3.03%
VEGF On; +4-HT, Table 6
  Mod Freq (indels/total sequences), VEGF On: 2.31%
VEGF On; −4-HT
  Mod. Freq (indels/total sequences), VEGF On: 0.85%
